This passage reports Fa results from ChEMBL document CHEMBL1157012, “Neural computational prediction of oral drug absorption based on CODES 2D descriptors” (Eur J Med Chem, 2010).

Molecules are shown by their SMILES.

This data set can be described thus: Human intestinal absorption in po dosed human. The settings on record: in vivo.
The compound `CC(C)NCC(O)c1cc(O)cc(O)c1` (configuration not stated) [METAPROTERENOL] showed a Fa of 44%.

`CN(C)C(=N)N=C(N)N` [METFORMIN] showed a Fa of 53%.

Compound `CCC(=O)C(CC(C)N(C)C)(c1ccccc1)c1ccccc1` (configuration not stated) [METHADONE] registered a Fa of 80%. The compound `CN(Cc1cnc2nc(N)nc(N)c2n1)c1ccc(C(=O)N[C@@H](CCC(=O)O)C(=O)O)cc1` [METHOTREXATE] came in with a Fa of 70%. Then `C[C@](N)(Cc1ccc(O)c(O)c1)C(=O)O` [METHYLDOPA], with 41%; and `C[C@H]1C[C@@H]2[C@H]([C@@H](O)C[C@@]3(C)[C@H]2CC[C@]3(O)C(=O)CO)[C@@]2(C)C=CC(=O)C=C12` [METHYLPREDNISOLONE], with 82%. Then `Cc1cccc(C)c1OCC(C)N` (configuration not stated) [MEXILETINE], with 100%; and `COCC(=O)O[C@]1(CCN(C)CCCc2nc3ccccc3[nH]2)CCc2cc(F)ccc2[C@@H]1C(C)C` [MIBEFRADIL], with 69%. In turn, `COP(=O)(OC)OC(c1ccc(Cl)cc1)P(=O)(OC)OC` (configuration not stated) [MIFOBATE] showed a Fa of 81%. The compound `Nc1cc(N2CCCCC2)nc(N)[n+]1[O-]` [MINOXIDIL] returned a Fa of 98%. Then `COc1nc(C)nc(Cl)c1N=C1NCCN1` [MOXONIDINE], with 87%; and `CC(C)(C)NCC(O)COc1cccc2c1CC(O)C(O)C2` (configuration not stated) [NADOLOL], with 57%; and `CCc1nn(CCCN2CCN(c3cccc(Cl)c3)CC2)c(=O)n1CCOc1ccccc1` [NEFAZODONE], with 100%.

`CC#Cc1cn([C@@H]2O[C@H](CO)[C@@H](O)[C@@H]2O)c(=O)[nH]c1=O` [NETIVUDINE] had a Fa of 28%.

Compound `O=C(O)c1cccnc1` [NIACIN] came in with a Fa of 88%.

`COC(=O)C1=C(C)NC(C)=C(C(=O)OCC(C)C)C1c1ccccc1[N+](=O)[O-]` (configuration not stated) [NISOLDIPINE] showed a Fa of 89%. As for `CCOC(=O)C1=C(C)NC(C)=C(C(=O)OC)C1c1cccc([N+](=O)[O-])c1` (configuration not stated) [NITRENDIPINE], the Fa was found to be 88%. Then `CNC(=C[N+](=O)[O-])NCCSCc1csc(CN(C)C)n1` [NIZATIDINE], with 90%; and `CC1COc2c(N3CCN(C)CC3)c(F)cc3c(=O)c(C(=O)O)cn1c23` (configuration not stated) [OFLOXACIN], with 100%; and `O=C(O)c1cc(/N=N/c2ccc(O)c(C(=O)O)c2)ccc1O` [OLSALAZINE], with 24%. Then `Cc1nccn1CC1CCc2c(c3ccccc3n2C)C1=O` (configuration not stated) [ONDANSETRON], with 100%.

Compound `C[C@@H]1O[C@@H](O[C@H]2C[C@@H](O)[C@]3(CO)[C@H]4[C@H](O)C[C@]5(C)[C@@H](C6=CC(=O)OC6)CC[C@]5(O)[C@@H]4CC[C@]3(O)C2)[C@H](O)[C@H](O)[C@H]1O` [OUABAIN] showed a Fa of 1%. `O=c1[nH]c2ccccc2n1CCCN1CCN(C(c2ccccc2)c2ccccc2)CC1` [OXATOMIDE]: the Fa turned out to be 100%.

Compound `C=CCOc1ccccc1OCC(O)CNC(C)C` (configuration not stated) [OXPRENOLOL] had a Fa of 95%.

With `COc1cccc(C(=O)CCN[C@@H](C)[C@H](O)c2ccccc2)c1` [OXYFEDRINE], the Fa is 84%. Then `CC(C)NCC(O)COc1ccc(CCNC(=O)NC(C)C)cc1` (configuration not stated) [PAFENOLOL], with 29%; and `CCn1cc(C(=O)O)c(=O)c2cc(F)c(N3CCN(C)CC3)cc21` [PEFLOXACIN], with 100%; and `CC1(C)S[C@@H]2[C@H](NC(=O)Cc3ccccc3)C(=O)N2[C@H]1C(=O)O` [PENICILLIN G], with 30%. With `CC1(C)S[C@@H]2[C@H](NC(=O)COc3ccccc3)C(=O)N2[C@H]1C(=O)O` [PENICILLIN V], the Fa was 59%. `CCN(CC)CCC1(c2ccccc2)CCC(=O)NC1=O` (configuration not stated) [PHENGLUTARIMIDE] yielded a Fa of 100%.

On to `O=C1NC(=O)C(c2ccccc2)(c2ccccc2)N1` [PHENYTOIN], for which the Fa amounted to 90%. `CC(C)NCC(O)COc1cccc2[nH]ccc12` (configuration not stated) [PINDOLOL]: the Fa turned out to be 87%.

`CC(C)(C)NCC(O)c1ccc(O)c(CO)n1` (configuration not stated) [PIRBUTEROL] yielded a Fa of 60%. Consider `CN1C(C(=O)Nc2ccccn2)=C(O)c2ccccc2S1(=O)=O` [PIROXICAM], for which the Fa turned out to be 100%. Consider `CCc1[nH]c(=O)[nH]c1C(=O)c1ccncc1` [PIROXIMONE], for which the Fa is 80%. Then `CC[C@H](C)C(=O)O[C@H]1C[C@H](O)C=C2C=C[C@H](C)[C@H](CC[C@@H](O)C[C@@H](O)CC(=O)O)[C@H]21` [PRAVASTATIN], with 34%. Then `O=C(C1CCCCC1)N1CC(=O)N2CCc3ccccc3C2C1` (configuration not stated) [PRAZIQUANTEL], with 100%. With `COc1cc2nc(N3CCN(C(=O)c4ccco4)CC3)nc(N)c2cc1OC` [PRAZOSIN], the Fa stood at 86%. As to `C[C@]12C=CC(=O)C=C1CC[C@@H]1[C@@H]2[C@@H](O)C[C@@]2(C)[C@H]1CC[C@]2(O)C(=O)CO` [PREDNISOLONE], the Fa was determined as 99%. In turn, `CCCOC(C(=O)OC1CCN(C)CC1)(c1ccccc1)c1ccccc1` [PROPIVERINE] yielded a Fa of 84%. The compound `CCCc1cc(=O)[nH]c(=S)[nH]1` [PROPYLTHIOURACIL] came in with a Fa of 76%.

In turn, `C=C[C@H]1C[N@@]2CC[C@H]1C[C@@H]2[C@@H](O)c1ccnc2ccc(OC)cc12` [QUINIDINE] yielded a Fa of 81%. With `Cn1c(=O)c2c(ncn2CCCNCC(O)c2cc(O)cc(O)c2)n(C)c1=O` (configuration not stated) [REPROTEROL], the Fa worked out at 60%. The compound `NC(=O)c1ncn([C@@H]2O[C@H](CO)[C@@H](O)[C@H]2O)n1` [RIBAVIRIN] displayed a Fa of 33%. Take `Oc1ccc(C(O)C2CCCCN2)cc1O` (configuration not stated) [RIMITEROL]: the Fa was 48%. Then `O=C1NS(=O)(=O)c2ccccc21` [SACCHARIN], with 88%; and `O=C(O)c1ccccc1O` [SALICYLIC ACID], with 100%; and `O=c1[nH]c(=O)n([C@@H]2O[C@H](CO)[C@@H](O)[C@@H]2O)cc1/C=C/Br` [SORIVUDINE], with 82%. `CC(C)NCC(O)c1ccc(NS(C)(=O)=O)cc1` (configuration not stated) [SOTALOL] gave a Fa of 95%.

As for `CC(=O)S[C@@H]1CC2=CC(=O)CC[C@]2(C)[C@H]2CC[C@@]3(C)[C@@H](CC[C@@]34CCC(=O)O4)[C@H]12` [SPIRONOLACTONE], the Fa turned out to be 73%. `Cc1cn([C@H]2C=C[C@@H](CO)O2)c(=O)[nH]c1=O` [STAVUDINE] gave a Fa of 100%. `CN1C(C(=O)Nc2nccs2)=C(O)c2ccccc2S1(=O)=O` [SUDOXICAM] gave a Fa of 100%. Then `O=C(O)c1cc(/N=N/c2ccc(S(=O)(=O)Nc3ccccn3)cc2)ccc1O` [SULFASALAZINE], with 59%; and `CCN1CCCC1CNC(=O)c1cc(S(N)(=O)=O)ccc1OC` (configuration not stated) [SULPIRIDE], with 44%; and `CCN1CCCC1CNC(=O)c1cc(S(=O)(=O)CC)ccc1OC` (configuration not stated) [SULTOPRIDE], with 89%.

In the case of `NC(=O)N1C(=O)/C(=C(\O)c2cccs2)c2cc(Cl)ccc21` [TENIDAP], the Fa stood at 89%. Turning to `CN1C(C(=O)Nc2ccccn2)=C(O)c2sccc2S1(=O)=O` [TENOXICAM], the Fa was determined as 100%.

With `COc1cc2nc(N3CCN(C(=O)C4CCCO4)CC3)nc(N)c2cc1OC` (configuration not stated) [TERAZOSIN], the Fa came to 90%. Then `CC(C)(C)NCC(O)c1cc(O)cc(O)c1` (configuration not stated) [TERBUTALINE], with 62%; and `C[C@]12CC[C@H]3[C@@H](CCC4=CC(=O)CC[C@@]43C)[C@@H]1CC[C@@H]2O` [TESTOSTERONE], with 100%. Then `Cn1c(=O)c2[nH]cnc2n(C)c1=O.O` [THEOPHYLLINE], with 100%; and `Cc1ccsc1C(=CCCN1CCC[C@@H](C(=O)O)C1)c1sccc1C` [TIAGABINE], with 90%. `CC(C)(C)NC[C@H](O)COc1nsnc1N1CCOCC1` [TIMOLOL] had a Fa of 95%. `COc1cc(C)c([S+](C)[O-])cc1OC` (configuration not stated) [TOLMESOXIDE] came in with a Fa of 98%. Then `CC1(C)O[C@@H]2[C@@H](CO[C@@]3(COS(N)(=O)=O)OC(C)(C)O[C@@H]23)O1` [TOPIRAMATE], with 86%.

On to `CN(C)CCOc1ccc(/C(=C(/CCCl)c2ccccc2)c2ccccc2)cc1` [TOREMIFENE], for which the Fa was 100%. `Cc1cccc(Nc2ccncc2S(=O)(=O)NC(=O)NC(C)C)c1` [TORSEMIDE] registered a Fa of 96%.

Take `COc1cccc(C2(O)CCCCC2CN(C)C)c1` (configuration not stated) [TRAMADOL]: the Fa came out at 90%. Compound `COc1cc(Cc2cnc(N)nc2N)cc(OC)c1OC` [TRIMETHOPRIM] came in with a Fa of 97%. In the case of `N[C@@H]1[C@H]2CN(c3nc4c(cc3F)c(=O)c(C(=O)O)cn4-c3ccc(F)cc3F)C[C@@H]12` [TROVAFLOXACIN], the Fa amounted to 88%. Then `CCCC(CCC)C(=O)[O-].[Na+]` [VALPROATE SODIUM], with 100%. `COc1ccc(C(CN(C)C)C2(O)CCCCC2)cc1` (configuration not stated) [VENLAFAXINE] had a Fa of 97%. In turn, `C=CC(N)CCC(=O)O` (configuration not stated) [VIGABATRIN] showed a Fa of 58%. Then `CCOc1ccccc1OCC1CNCCO1` (configuration not stated) [VILOXAZINE], with 98%; and `CC(C(=O)O)c1ccc(C2CCCC(=NO)C2)cc1` (configuration not stated) [XIMOPROFEN], with 98%; and `Cc1cn([C@H]2C[C@H](N=[N+]=[N-])[C@@H](CO)O2)c(=O)[nH]c1=O` [ZIDOVUDINE], with 100%. Then `O=C1Cc2cc(CCN3CCN(c4nsc5ccccc45)CC3)c(Cl)cc2N1` [ZIPRASIDONE], with 60%.
